Read-outs that look alike come from different tables or passages of the source.
Experiments:
[1] = target: T1, Drosophila OR47a (Drosophila melanogaster, UniProt P81921); experiment: Calcium ion fluorescence (GCaMP6) assay, OR47a stable HEK293 cell line; format: cell-based; conditions: for Average response: mean of biological replicates
T1 construct: expressed in transfected cells
T1 sequence (P81921 1-385): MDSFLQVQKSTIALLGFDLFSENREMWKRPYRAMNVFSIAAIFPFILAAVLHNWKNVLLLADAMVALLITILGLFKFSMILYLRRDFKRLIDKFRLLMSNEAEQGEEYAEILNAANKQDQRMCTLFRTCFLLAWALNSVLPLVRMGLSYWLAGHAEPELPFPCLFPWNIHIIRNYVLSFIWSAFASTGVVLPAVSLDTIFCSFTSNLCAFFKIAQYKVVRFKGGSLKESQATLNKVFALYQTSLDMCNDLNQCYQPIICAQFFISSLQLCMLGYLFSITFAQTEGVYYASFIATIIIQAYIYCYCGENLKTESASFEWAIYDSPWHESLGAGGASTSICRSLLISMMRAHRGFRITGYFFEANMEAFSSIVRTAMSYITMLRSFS
T1 sequence (Q9VNB5 1-486 partner): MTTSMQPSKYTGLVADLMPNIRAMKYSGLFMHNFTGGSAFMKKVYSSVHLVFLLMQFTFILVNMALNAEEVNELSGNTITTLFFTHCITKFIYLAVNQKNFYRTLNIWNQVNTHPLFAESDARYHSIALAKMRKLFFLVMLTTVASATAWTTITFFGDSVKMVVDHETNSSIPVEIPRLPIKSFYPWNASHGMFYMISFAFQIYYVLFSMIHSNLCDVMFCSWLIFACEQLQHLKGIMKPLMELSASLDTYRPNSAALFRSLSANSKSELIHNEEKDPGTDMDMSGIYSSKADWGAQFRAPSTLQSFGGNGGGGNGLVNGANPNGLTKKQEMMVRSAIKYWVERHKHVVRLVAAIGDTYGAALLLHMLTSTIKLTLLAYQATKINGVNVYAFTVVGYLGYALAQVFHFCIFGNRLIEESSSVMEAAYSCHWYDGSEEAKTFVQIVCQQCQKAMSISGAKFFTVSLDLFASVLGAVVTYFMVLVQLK
Summary of the method: (§1)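 Responses are VUAA1-normalized ΔF: each VOC-evoked calcium signal, (FMAX−F0)/F0 over 30 s after injection, divided by the same line's mean 50 µM VUAA1 response. Cells were doxycycline-induced HEK293 with GCaMP6 and the cognate Drosophila OR, in HEPES buffer pH 7.3; ligands tested 0.01–100 μM.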

[2] = target: T2, Drosophila OR85b (Drosophila melanogaster, UniProt Q9VHQ7); experiment: Calcium ion fluorescence (GCaMP6) assay, OR85b stable HEK293 cell line; format: cell-based; conditions: for Average response: VUAA1-normalized response, mean of biological replicates; for activation at 1 µM / activation at 10 µM / activation at 100 µM: HEK293, read-out: OR85b response (VUAA1-normalized response)
T2 construct: expressed in transfected cells
T2 sequence (Q9VHQ7 1-390): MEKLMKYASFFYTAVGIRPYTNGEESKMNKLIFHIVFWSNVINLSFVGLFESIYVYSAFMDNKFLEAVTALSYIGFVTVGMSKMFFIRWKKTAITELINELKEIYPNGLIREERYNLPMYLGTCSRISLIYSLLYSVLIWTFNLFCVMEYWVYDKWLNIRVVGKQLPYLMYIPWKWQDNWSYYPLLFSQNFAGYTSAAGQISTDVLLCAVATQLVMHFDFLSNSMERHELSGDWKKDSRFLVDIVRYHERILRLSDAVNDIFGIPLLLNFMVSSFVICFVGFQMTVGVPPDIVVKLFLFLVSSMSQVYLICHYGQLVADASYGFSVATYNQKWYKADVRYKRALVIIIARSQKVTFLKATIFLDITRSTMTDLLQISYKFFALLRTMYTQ
T2 sequence (Q9VNB5 1-486 partner): T1 sequence (Q9VNB5 1-486 partner)
Summary of the method: as §1

[3] = OR47a cell line, odorant cc. 1 µM
[4] = OR47a cell line, odorant cc. 10 µM
[5] = OR47a cell line, odorant cc. 100 µM
[6] = concentration 1, normalized fluorescence change, values below 0.05 threshold given as 0
[7] = concentration 10, normalized fluorescence change, values below 0.05 threshold given as 0
[8] = concentration 100, normalized fluorescence change, values below 0.05 threshold given as 0
[9] = HEK293, read-out: OR47a Average response (VUAA1-normalized)
[10] = HEK293, read-out: OR47a response (VUAA1-normalized response)
[11] = ligand concentration 1 (unit not given), threshold 0.05, below shown as 0
[12] = ligand concentration 10 (unit not given), threshold 0.05, below shown as 0
[13] = ligand concentration 100 (unit not given), threshold 0.05, below shown as 0
[14] = ligand concentration 1 (unit not given), 0.05 threshold, values below shown as 0
[15] = ligand concentration 10 (unit not given), 0.05 threshold, values below shown as 0
[16] = ligand concentration 100 (unit not given), 0.05 threshold, values below shown as 0

| Compound | Average response [1, 3] | Average response [1, 4] | Average response [1, 5] | OR47a response (VUAA1-normalized response) ([1]; VOC concentration 1 μM) | OR47a response (VUAA1-normalized response) ([1]; VOC concentration 10 μM) | DF norm AVERAGE OR47a [1, 6] | DF norm AVERAGE OR47a [1, 7] | DF norm AVERAGE OR47a [1, 8] | Average response ([2]; OR85b cell line, cc. 1 µM) | Average response ([2]; OR85b cell line, cc. 10 µM) | Average response ([2]; OR85b cell line, cc. 100 µM) | DF norm AVERAGE OR85b [2, 6] | DF norm AVERAGE OR85b [2, 7] | DF norm AVERAGE OR85b [2, 8] | activation at 1 µM [1, 10] [%] | activation at 10 µM [1, 10] [%] | activation at 100 µM [1, 10] [%] | activation at 1 µM [2] [%] | activation at 10 µM [2] [%] | activation at 100 µM [2] [%] | further results |
| --- | --- | --- | --- | --- | --- | --- | --- | --- | --- | --- | --- | --- | --- | --- | --- | --- | --- | --- | --- | --- | --- |
| C=C(C)C1CCC2(C)OC2C1 (single isomer, unassigned; (+)) [(+)-limonene oxide] | 0.00 | 0.00 | 0.00 | 0.00 | 0.00 | 0 | 0 | 0 | 0.00 | 0.00 | 0.00 | 0 | 0 | 0 |  |  |  |  |  |  | OR47a response (VUAA1-normalized response) ([1]; VOC concentration 100 μM): 0.00; OR85b response (VUAA1-normalized response) ([2]; VOC concentration 1 μM): 0.00; OR85b response (VUAA1-normalized response) ([2]; VOC concentration 10 μM): 0.00; OR85b response (VUAA1-normalized response) ([2]; VOC concentration 100 μM): 0.00 |
| C=CC(O)CCCCC (stereo not drawn) [1-octen-3-ol] | 0.00 | 0.0268 | 0.14 |  |  | 0 | 0 | 0.1389 | 0.00 | 0.0043 | 0.08 | 0 | 0 | 0.08325 | 0 | 0 | 14 | 0 | 0 | 8 | activation at 1 µM [1, 9]: 0%; activation at 10 µM [1, 9]: 3%; activation at 100 µM [1, 9]: 14% |
| C=CCc1ccc(O)c(OC)c1 [eugenol] | 0.00 | 0.0283 | 0.0436 |  |  |  |  |  | 0.00 | 0.0188 | 0.09 |  |  |  | 0 | 0 | 0 | 0 | 0 | 9 | DF norm AVERAGE OR47a [1, 11]: 0; DF norm AVERAGE OR47a [1, 12]: 0; DF norm AVERAGE OR47a [1, 13]: 0; DF norm AVERAGE OR85b [2, 11]: 0; DF norm AVERAGE OR85b [2, 12]: 0; DF norm AVERAGE OR85b [2, 13]: 0.09022 |
| C=C1CC[C@H]2O[C@]2(C)CC[C@@H]2[C@@H]1CC2(C)C [(-)-caryophyllene oxide] | 0.00 | 0.00 | 0.00 |  |  | 0 | 0 | 0 | 0.00 | 0.00 | 0.036 | 0 | 0 | 0 | 0 | 0 | 0 | 0 | 0 | 0 |  |
| CCCCCCCCC=O [nonanal] | 0.00 | 0.00 | 0.00 |  |  |  |  |  | 0.00 | 0.00 | 0.00 |  |  |  |  |  |  |  |  |  | OR47a response (VUAA1-normalized) at 1 μM ([1]; OR47a cell line, VOC concentration 1 μM): 0.00; OR47a response (VUAA1-normalized) at 10 μM ([1]; OR47a cell line, VOC concentration 10 μM): 0.00; OR47a response (VUAA1-normalized) at 100 μM ([1]; OR47a cell line, VOC concentration 100 μM): 0.00; DF norm AVERAGE OR47a [1, 11]: 0; DF norm AVERAGE OR47a [1, 12]: 0; DF norm AVERAGE OR47a [1, 13]: 0; OR85b response (VUAA1-normalized) at 1 μM ([2]; OR85b cell line, VOC concentration 1 μM): 0.00; OR85b response (VUAA1-normalized) at 10 μM ([2]; OR85b cell line, VOC concentration 10 μM): 0.00; OR85b response (VUAA1-normalized) at 100 μM ([2]; OR85b cell line, VOC concentration 100 μM): 0.00; DF norm AVERAGE OR85b [2, 11]: 0; DF norm AVERAGE OR85b [2, 12]: 0; DF norm AVERAGE OR85b [2, 13]: 0 |
| CCCC(=O)OCC [ethyl butyrate] | 0.00 | 0.00 | 0.0448 |  |  |  |  |  | 0.00 | 0.0253 | 0.0224 |  |  |  | 0 | 0 | 0 | 0 | 0 | 0 | DF norm AVERAGE OR47a [1, 11]: 0; DF norm AVERAGE OR47a [1, 12]: 0; DF norm AVERAGE OR47a [1, 13]: 0; DF norm AVERAGE OR85b [2, 11]: 0; DF norm AVERAGE OR85b [2, 12]: 0; DF norm AVERAGE OR85b [2, 13]: 0 |
| CC/C=C\CCOC(C)=O [z3-hexenyl acetate] | 0.35 | 0.67 | 0.76 |  |  |  |  |  | 0.15 | 0.00 | 0.00 |  |  |  |  |  |  |  |  |  | activation at 1 µM [1, 9]: 35%; activation at 10 µM [1, 9]: 67%; activation at 100 µM [1, 9]: 76%; DF norm AVERAGE OR47a [1, 14]: 0.3542; DF norm AVERAGE OR47a [1, 15]: 0.669; DF norm AVERAGE OR47a [1, 16]: 0.7586; DF norm AVERAGE OR85b [2, 14]: 0.1453; DF norm AVERAGE OR85b [2, 15]: 0; DF norm AVERAGE OR85b [2, 16]: 0 |
| (+)-beta-cedrene | 0.00 | 0.00 | 0.00 | 0.00 | 0.00 | 0 | 0 | 0 | 0.00 | 0.0468 | 0.0135 | 0 | 0 | 0 |  |  |  |  |  |  | OR47a response (VUAA1-normalized response) ([1]; VOC concentration 100 μM): 0.00; OR85b response (VUAA1-normalized response) ([2]; VOC concentration 1 μM): 0.00; OR85b response (VUAA1-normalized response) ([2]; VOC concentration 10 μM): 0.00; OR85b response (VUAA1-normalized response) ([2]; VOC concentration 100 μM): 0.00 |
| C=C(C)[C@H]1CC=C(C)CC1 [(R)-(+)-limonene] | 0.05 | 0.0529 | 0.00 | 0.00 | 0.0529 | 0 | 0.05286 | 0 | 0.0426 | 0.03 | 0.00 | 0 | 0 | 0 |  |  |  |  |  |  | OR47a response (VUAA1-normalized response) ([1]; VOC concentration 100 μM): 0.00; OR85b response (VUAA1-normalized response) ([2]; VOC concentration 1 μM): 0.00; OR85b response (VUAA1-normalized response) ([2]; VOC concentration 10 μM): 0.00; OR85b response (VUAA1-normalized response) ([2]; VOC concentration 100 μM): 0.00 |

Source: publication PMC10709440, “High-throughput ligand profile characterization in novel cell lines expressing seven heterologous insect olfactory receptors for the detection of volatile plant biomarkers” (Scientific Reports, 2023)
